The target of assay [1] is T1, Replicative DNA helicase DnaB (Mycobacterium tuberculosis, UniProt P9WMR3).
T1 sequence (P9WMR3 whole entry): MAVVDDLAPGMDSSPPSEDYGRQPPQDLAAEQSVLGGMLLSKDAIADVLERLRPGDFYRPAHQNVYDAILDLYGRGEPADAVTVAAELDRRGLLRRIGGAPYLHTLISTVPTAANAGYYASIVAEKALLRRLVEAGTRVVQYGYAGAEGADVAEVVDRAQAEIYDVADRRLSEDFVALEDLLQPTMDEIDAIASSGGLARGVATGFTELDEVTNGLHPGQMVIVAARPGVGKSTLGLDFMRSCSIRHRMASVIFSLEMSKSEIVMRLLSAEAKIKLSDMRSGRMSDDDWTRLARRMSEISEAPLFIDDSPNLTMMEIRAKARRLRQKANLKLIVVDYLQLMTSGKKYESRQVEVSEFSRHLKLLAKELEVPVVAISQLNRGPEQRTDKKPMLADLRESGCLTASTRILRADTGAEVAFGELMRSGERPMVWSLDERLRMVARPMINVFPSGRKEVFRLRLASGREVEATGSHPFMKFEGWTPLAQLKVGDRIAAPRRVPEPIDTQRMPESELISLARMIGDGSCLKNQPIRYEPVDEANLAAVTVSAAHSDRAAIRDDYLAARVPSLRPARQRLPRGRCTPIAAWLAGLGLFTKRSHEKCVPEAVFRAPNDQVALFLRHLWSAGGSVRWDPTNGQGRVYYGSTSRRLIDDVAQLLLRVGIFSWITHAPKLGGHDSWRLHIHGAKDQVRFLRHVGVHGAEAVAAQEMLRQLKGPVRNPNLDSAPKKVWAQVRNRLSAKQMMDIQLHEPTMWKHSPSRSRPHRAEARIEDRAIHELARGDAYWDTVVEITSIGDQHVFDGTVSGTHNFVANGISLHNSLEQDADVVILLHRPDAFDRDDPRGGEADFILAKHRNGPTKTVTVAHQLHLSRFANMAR
The experiment in a line: DnaB intein splicing inhibitors, dose response, biochemical, cell-free fluorescence (AID 449749). The format is functional.

Assay [2] has as its target T2, Streptokinase A (Streptococcus pyogenes serotype M1, UniProt P10520).
T2 sequence (P10520 whole entry): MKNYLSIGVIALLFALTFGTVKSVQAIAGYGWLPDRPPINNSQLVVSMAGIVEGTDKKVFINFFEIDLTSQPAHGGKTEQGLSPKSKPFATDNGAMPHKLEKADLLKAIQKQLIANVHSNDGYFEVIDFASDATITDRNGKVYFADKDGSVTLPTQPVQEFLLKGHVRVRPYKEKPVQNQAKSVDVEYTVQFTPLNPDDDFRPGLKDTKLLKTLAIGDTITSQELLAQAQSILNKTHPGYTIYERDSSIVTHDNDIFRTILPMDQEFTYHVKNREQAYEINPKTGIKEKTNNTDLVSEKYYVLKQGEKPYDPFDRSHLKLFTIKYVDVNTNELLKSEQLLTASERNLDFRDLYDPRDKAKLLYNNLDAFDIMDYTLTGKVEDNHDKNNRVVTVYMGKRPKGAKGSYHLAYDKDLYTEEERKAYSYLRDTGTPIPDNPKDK
As to the kind of experiment: viability-normalized secreted streptokinase activity reduction – plasminogen activation absorbance, OD405, dose response (AID 1914).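 Further: secreted streptokinase activity via plasminogen activation per viability signal from cell pellet.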 The format is functional, Streptococcus pyogenes M1 GAS.

Assay [3] addresses Fibroblast growth factor receptor 1 (Homo sapiens, UniProt P11362). The format is functional.
The target of assay [4] is Tyrosine-protein kinase JAK2 (Homo sapiens, UniProt O60674). The format is functional.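 Further: JAK2 tested as one member of a kinase panel.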
Assay [5] addresses T3, Aurora kinase A (Homo sapiens, UniProt O14965).
T3 sequence (O14965 whole entry): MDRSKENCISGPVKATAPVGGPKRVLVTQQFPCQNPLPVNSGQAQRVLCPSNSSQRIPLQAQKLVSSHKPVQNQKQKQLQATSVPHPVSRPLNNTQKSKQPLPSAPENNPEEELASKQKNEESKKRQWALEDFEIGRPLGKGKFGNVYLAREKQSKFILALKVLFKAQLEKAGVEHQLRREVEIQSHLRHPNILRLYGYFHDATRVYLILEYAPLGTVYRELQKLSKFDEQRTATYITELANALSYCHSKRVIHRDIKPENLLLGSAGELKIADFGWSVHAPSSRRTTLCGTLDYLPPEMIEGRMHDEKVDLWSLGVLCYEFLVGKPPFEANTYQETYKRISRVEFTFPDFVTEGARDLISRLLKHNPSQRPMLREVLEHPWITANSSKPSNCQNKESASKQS
The format is functional.

For assay [6], the target named is Glycogen synthase kinase-3 alpha (Homo sapiens, UniProt P49840). The format is functional.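 Further: GSK3A result taken from a broad kinome-wide kinase panel.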
Glycogen synthase kinase-3 alpha, sequence (P49840 whole entry): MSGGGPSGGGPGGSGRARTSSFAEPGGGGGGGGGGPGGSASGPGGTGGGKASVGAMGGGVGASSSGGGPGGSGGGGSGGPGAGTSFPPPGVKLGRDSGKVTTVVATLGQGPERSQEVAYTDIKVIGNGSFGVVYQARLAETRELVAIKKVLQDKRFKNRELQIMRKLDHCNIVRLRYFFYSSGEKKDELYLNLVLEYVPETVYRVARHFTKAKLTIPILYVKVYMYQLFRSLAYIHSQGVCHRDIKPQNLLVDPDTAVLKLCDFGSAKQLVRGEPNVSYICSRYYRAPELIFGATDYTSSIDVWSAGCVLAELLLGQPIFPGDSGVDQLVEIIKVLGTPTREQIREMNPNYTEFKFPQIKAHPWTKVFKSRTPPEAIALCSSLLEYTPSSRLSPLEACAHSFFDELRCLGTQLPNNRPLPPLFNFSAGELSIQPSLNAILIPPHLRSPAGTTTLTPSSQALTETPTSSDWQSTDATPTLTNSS
The target in assay [7] is Insulin-like growth factor 1 receptor (Homo sapiens, UniProt P08069). The experiment in a line: Navigating the Kinome. Panel member name: IGF1R. The format is functional.
Insulin-like growth factor 1 receptor, sequence (P08069 31-736 limits assumed): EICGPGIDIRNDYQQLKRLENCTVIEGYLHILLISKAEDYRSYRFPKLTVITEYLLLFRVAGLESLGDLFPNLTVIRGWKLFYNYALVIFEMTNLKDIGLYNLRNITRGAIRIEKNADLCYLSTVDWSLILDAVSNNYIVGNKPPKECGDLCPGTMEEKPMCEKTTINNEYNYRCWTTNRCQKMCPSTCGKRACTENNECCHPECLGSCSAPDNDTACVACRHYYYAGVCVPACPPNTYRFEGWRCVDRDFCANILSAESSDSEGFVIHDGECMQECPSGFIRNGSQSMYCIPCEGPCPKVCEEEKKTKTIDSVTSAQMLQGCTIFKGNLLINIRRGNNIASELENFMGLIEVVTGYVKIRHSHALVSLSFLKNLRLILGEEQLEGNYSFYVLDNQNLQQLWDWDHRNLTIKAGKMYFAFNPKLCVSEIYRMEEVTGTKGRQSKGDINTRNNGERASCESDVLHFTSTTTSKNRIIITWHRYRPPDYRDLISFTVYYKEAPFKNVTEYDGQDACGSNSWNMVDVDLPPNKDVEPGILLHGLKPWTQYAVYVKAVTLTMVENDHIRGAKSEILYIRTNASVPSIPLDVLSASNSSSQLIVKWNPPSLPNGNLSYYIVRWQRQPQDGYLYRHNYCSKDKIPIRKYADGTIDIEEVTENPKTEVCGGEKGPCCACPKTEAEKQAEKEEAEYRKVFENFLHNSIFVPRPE
Insulin-like growth factor 1 receptor, sequence (P08069 741-1367 limits assumed): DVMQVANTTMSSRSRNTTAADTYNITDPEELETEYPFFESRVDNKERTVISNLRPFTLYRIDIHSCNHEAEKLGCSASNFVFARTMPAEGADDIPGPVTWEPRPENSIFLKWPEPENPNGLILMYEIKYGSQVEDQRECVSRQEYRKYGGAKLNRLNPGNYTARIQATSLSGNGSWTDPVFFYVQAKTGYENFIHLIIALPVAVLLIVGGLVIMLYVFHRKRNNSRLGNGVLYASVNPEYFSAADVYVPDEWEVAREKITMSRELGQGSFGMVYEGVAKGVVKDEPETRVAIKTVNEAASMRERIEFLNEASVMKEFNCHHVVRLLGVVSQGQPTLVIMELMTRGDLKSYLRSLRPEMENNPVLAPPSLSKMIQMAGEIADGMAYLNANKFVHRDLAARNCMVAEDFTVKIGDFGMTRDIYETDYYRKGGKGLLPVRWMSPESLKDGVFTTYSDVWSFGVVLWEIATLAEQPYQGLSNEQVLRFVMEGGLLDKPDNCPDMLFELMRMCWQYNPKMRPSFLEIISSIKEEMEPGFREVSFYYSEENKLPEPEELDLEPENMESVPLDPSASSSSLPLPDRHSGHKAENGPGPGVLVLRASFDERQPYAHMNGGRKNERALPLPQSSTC
The target of assay [8] is Tyrosine-protein kinase Fyn (Homo sapiens, UniProt P06241). The format is functional.
Tyrosine-protein kinase Fyn, sequence (P06241 whole entry): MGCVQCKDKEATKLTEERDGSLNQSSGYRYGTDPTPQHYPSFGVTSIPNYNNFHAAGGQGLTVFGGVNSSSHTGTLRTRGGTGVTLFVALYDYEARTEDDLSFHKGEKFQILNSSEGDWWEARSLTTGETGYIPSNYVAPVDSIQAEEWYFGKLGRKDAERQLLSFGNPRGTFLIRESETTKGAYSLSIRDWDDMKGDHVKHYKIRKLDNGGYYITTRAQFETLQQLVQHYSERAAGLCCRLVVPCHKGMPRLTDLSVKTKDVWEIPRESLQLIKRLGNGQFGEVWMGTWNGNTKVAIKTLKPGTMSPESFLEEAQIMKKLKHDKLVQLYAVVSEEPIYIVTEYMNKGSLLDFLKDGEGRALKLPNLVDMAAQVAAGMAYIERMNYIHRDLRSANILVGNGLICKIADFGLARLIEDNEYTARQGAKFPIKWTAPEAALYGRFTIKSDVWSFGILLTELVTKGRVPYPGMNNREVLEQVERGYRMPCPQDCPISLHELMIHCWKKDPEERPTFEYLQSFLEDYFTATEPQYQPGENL
Assay [9] concerns the target Vascular endothelial growth factor receptor 1 (Homo sapiens, UniProt P17948). The format is functional.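 Further: measured within a kinome-wide profiling panel, FLT1 as the panel member.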
The target of assay [10] is Serine/threonine-protein kinase TAO1 (Homo sapiens, UniProt Q7L7X3). The format is functional.
Assay [11] addresses Serine/threonine-protein kinase D3 (Homo sapiens, UniProt O94806). The format is functional.
The target in assay [12] is Mitogen-activated protein kinase kinase kinase kinase 4 (Homo sapiens, UniProt O95819). The format is functional.
In assay [13] the target is Tyrosine-protein kinase BTK (Homo sapiens, UniProt Q06187). The format is functional.
Assay [14] addresses T4, cAMP-dependent protein kinase catalytic subunit PRKX (Homo sapiens, UniProt P51817).
T4 sequence (P51817 whole entry): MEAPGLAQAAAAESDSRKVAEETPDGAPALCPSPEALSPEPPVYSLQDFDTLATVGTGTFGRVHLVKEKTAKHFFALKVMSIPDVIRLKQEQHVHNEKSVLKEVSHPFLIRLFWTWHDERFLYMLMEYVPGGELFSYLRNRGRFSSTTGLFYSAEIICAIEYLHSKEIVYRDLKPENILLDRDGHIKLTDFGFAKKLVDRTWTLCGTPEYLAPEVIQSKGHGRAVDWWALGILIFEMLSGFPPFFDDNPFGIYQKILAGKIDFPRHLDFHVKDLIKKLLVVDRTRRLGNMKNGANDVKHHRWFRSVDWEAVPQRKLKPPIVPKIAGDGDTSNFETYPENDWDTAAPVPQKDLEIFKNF
The format is functional.

For assay [15], the target named is Tyrosine-protein kinase receptor TYRO3 (Homo sapiens, UniProt Q06418). The format is functional.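 Further: TYRO3 value obtained as one member of a kinome-wide profiling panel.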
Tyrosine-protein kinase receptor TYRO3, sequence (Q06418 whole entry): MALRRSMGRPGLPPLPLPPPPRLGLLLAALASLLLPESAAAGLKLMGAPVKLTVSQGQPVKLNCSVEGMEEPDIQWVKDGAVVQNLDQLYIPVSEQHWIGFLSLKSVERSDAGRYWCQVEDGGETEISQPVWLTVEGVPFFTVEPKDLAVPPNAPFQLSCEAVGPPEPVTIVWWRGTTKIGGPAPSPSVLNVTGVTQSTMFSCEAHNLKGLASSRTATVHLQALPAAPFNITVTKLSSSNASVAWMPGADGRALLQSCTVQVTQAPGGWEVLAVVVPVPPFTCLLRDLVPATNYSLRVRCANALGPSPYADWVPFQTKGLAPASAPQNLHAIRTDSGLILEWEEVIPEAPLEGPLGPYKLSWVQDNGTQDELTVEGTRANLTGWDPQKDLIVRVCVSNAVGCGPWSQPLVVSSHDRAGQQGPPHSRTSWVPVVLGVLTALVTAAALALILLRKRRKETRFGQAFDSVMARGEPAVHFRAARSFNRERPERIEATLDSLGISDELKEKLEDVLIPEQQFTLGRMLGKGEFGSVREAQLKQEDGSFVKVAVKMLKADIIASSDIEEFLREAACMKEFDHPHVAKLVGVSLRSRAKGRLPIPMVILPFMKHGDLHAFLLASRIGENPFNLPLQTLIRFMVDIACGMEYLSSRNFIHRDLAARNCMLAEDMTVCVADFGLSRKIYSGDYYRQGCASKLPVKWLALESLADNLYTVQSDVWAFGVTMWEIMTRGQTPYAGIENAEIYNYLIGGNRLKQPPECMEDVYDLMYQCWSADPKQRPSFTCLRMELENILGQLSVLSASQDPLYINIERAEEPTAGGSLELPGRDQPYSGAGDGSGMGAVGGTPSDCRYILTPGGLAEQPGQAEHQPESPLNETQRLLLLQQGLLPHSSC
The target of assay [16] is Glucose-6-phosphate 1-dehydrogenase (Homo sapiens, UniProt P11413). The experiment in a line: inhibition of Homo sapiens G6PD, dose series – biochemical, fluorescence, selectivity assay for P. falciparum G6PD inhibitor project, dose response (AID 504792). The format is functional.
Glucose-6-phosphate 1-dehydrogenase, sequence (P11413 whole entry): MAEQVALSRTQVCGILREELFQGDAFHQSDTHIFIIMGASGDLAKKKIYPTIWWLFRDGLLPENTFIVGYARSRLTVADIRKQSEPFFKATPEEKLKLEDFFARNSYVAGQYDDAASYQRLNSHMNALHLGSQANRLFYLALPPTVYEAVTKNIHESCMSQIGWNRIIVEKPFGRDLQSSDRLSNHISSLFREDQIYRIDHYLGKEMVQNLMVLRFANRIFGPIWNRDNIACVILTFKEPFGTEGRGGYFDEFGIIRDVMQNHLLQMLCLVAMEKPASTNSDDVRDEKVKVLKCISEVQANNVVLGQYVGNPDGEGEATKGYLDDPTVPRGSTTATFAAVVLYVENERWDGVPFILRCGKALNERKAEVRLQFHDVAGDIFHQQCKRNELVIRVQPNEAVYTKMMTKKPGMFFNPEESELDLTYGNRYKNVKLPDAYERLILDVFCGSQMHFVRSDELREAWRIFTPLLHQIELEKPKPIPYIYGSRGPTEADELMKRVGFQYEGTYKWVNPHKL

Activity calls are given as the source filed them.

What is called AC50 is the midpoint of the concentration-response curve, whichever way the signal moves. Broadly, the EC50 is the concentration giving half of the maximal effect. For orientation: Ki means the dissociation constant of the complex between target and ligand, obtained from inhibition or displacement. As usually defined, the IC50 is the concentration that inhibits the measured activity by half.

Serine/threonine-protein kinase D3, sequence (O94806 whole entry): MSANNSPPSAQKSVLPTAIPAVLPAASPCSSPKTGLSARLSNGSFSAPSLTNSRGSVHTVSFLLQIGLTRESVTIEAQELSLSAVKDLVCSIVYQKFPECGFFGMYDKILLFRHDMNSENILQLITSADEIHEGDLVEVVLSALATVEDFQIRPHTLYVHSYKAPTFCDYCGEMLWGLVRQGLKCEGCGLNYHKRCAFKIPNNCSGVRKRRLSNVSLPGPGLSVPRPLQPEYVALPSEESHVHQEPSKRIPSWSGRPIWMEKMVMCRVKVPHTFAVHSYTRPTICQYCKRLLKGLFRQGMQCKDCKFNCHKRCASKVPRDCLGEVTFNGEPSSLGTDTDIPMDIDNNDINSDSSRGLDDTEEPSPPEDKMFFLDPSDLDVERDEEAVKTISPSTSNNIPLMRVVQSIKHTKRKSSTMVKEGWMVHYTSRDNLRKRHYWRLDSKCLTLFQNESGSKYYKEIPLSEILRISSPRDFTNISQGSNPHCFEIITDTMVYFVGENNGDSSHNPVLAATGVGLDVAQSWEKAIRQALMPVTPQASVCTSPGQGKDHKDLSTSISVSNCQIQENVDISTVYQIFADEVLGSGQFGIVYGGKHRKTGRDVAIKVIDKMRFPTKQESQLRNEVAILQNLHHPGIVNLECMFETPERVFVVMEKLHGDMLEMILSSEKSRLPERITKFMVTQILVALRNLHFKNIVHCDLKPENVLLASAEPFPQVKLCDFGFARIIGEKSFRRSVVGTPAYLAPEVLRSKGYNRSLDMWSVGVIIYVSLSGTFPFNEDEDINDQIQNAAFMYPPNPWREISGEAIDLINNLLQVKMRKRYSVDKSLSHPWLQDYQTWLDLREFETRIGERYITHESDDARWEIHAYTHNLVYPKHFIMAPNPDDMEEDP

`CCCCCCCCCCC[N+](C)(C)CC/C=C1/c2ccccc2Sc2ccc(Cl)cc21`: in [1], the AC50 was > 380000 nM (inactive). In assay [2], the EC50 was 8220 nM (active).
As for `CCn1c(-c2nonc2N)nc2cncc(C(=O)N3CCC(N)C3)c21` (configuration not stated), the Ki in assay [3] is > 3980 nM (inactive); in assay [4], > 2510 nM (inactive); in [5], > 1580 nM (inactive); in assay [6] it was 398 nM (active); in assay [7], > 2510 nM (inactive); in assay [8] it was > 6310 nM (inactive). Also, the Ki is > 3980 nM (inactive) in assay [9]; > 6310 nM (inactive) in [10]; 631 nM (active) in assay [11]; > 3160 nM (inactive) in assay [12]; > 6310 nM (inactive) in assay [13]; 20 nM (active) in assay [14]. Further, the Ki in assay [15] was > 3160 nM (inactive).
As for `Cc1cc(C)c[n+](C2=C([N-]S(=O)(=O)c3cccs3)C(=O)c3ccccc3C2=O)c1`, the IC50 in assay [16] was > 80000 nM (inactive). Moreover, the EC50 in assay [2] is > 150000 nM (not active).
As to `Cc1[nH]nc2ccc(-c3cncc(OCC(N)Cc4c[nH]c5ccccc45)c3)cc12` (configuration not stated), the Ki in assay [3] was 3160 nM (active); in [4], > 1580 nM (inactive); in assay [5] it was > 1580 nM (inactive); in [6] it was 126 nM (active); in [7], > 2000 nM (inactive); in [8], > 794 nM (inactive). The Ki is > 398 nM (inactive) in assay [9]; > 10000 nM (inactive) in assay [10]; 5.01 nM (active) in assay [11]; 50.1 nM (active) in [12]; > 1260 nM (inactive) in [13]; 63.1 nM (active) in assay [14]. Also, the Ki in assay [15] is > 2000 nM (inactive).
Turning to `COC(=O)c1ccccc1NC1=C/C(=N\S(=O)(=O)c2cccs2)c2ccccc2C1=O`, the IC50 in assay [16] was 27200 nM (inactive). In addition, the AC50 in [1] is > 380000 nM (inconclusive).
